# From patent US8841090B2 (priority 2006, dated 2014)
# “Also recorded” adds a separate entry of the source. Where two headings read alike, the source gives them in different places.
# Experiments:
# PgLAT2 transporter = PgLAT2 transporter (Meyerozyma guilliermondii, UniProt A5DRF8); experiment: L-arabinose transport by PgLAT2 transporter expressed in S. cerevisiae BFY605; conditions: for Competition with L-arabinose uptake by PgLAT2: competing sugars; for Inhibition of L-arabinose transport by PgLAT2: protonophores and H+-ATPase inhibitors
# Method: (§3) Cells were collected in mid-growth and washed twice in water before suspension in water at about 30 mg/ml. […] Assays were performed in 5, 10, or 30 second periods to maintain initial rates. Appropriate experiments ensured uptake was linear for at least 1 minute. Transport activity was described as nmoles of labeled sugar transported per mg cell dry weight per minute.
# KmLat1 transporter [1] = target: KmLat1 transporter (Kluyveromyces marxianus, UniProt A0ABX6EN84); experiment: L-arabinose transport by KmLat1 expressed in S. cerevisiae, 14C-sugar uptake; assay type: cell-based; conditions: for Competition with L-arabinose transport by KmLat1: competing sugars; for Inhibition of L-arabinose transport by KmLat1: protonophores and H+-ATPase inhibitors
# Chain of KmLat1 transporter (Kluyveromyces marxianus, UniProt A0ABX6EN84) (A0ABX6EN84 entry or part of it): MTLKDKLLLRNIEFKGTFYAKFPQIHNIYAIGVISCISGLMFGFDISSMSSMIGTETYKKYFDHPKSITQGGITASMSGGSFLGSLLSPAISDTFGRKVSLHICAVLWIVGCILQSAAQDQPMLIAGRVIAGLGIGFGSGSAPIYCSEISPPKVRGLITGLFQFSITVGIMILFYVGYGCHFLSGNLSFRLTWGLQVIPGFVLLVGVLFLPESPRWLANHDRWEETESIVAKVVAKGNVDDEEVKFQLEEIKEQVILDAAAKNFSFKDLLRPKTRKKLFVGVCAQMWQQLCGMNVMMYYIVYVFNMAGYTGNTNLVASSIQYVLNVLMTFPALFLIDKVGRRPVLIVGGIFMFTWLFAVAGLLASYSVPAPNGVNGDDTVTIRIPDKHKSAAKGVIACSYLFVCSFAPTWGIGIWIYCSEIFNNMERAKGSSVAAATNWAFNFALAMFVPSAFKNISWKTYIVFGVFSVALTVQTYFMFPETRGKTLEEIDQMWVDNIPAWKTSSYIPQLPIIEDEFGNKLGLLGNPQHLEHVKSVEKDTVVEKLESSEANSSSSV
# Method: (§1) Cells are collected in mid-growth and washed twice before suspension in water at 30 mg/ml. Uptake of L-(1-^14C)arabinose (54 mCi/mmol, Moravek Biochemicals Inc.) or D-(1-^14C) galactose (57 mCi/mmol, Amersham Biosciences) is measured as previously described by Stambuk et al. (2003). Assays are performed in 30 seconds to maintain initial rates after appropriate experiments to ensure uptake is linear for at least 1 minute. […] Inhibition and competition assays are performed as previously described by Stambuk et al, (2003).
# (§2) The transport characteristics of the KmLat1 and the Gal2 transporters expressed in S. cerevisiae were compared.
# P. guilliermondii Y-2075 = experiment: Sugar transport in wild type P. guilliermondii Y-2075 grown on L-arabinose; assay type: cell-based, Pichia guilliermondii
# Method: as §3
# Gal2 permease = target: T1, Gal2 permease (Saccharomyces cerevisiae, UniProt P13181, G90S/H392R/M8V/S50P); assay type: cell-based, S. cerevisiae; conditions: for Competition with L-arabinose transport by Gal2 permease: competing sugars
# T1 construct: expressed in transfected cells; host or cells: S. cerevisiae BFY597 (gal2Δ::HIS3, plasmids p138 and p42)
# T1 sequence (P13181 whole entry M8V/S50P/G90S/H392R): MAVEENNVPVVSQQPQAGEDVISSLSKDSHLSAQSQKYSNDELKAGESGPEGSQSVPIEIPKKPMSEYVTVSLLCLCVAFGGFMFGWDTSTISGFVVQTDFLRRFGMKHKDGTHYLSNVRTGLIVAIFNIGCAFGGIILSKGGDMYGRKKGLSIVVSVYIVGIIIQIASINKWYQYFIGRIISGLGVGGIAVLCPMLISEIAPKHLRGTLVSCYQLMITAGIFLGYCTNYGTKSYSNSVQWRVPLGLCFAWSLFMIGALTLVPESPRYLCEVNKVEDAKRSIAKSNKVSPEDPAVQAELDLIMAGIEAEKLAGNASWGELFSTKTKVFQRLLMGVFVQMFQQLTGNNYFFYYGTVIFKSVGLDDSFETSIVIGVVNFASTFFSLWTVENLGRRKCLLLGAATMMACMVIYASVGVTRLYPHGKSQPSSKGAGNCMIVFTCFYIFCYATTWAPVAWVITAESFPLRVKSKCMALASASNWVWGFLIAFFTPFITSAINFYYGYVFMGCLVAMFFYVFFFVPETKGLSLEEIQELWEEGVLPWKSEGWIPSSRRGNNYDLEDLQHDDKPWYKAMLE
# Method: as §1, §2
# KmLat1 transporter [2] = experiment: L-arabinose transport by KmLat1 expressed in S. cerevisiae, 14C-sugar uptake; assay type: cell-based, Kluyveromyces marxianus
# Method: as §1, §2
# [3] = inhibitor NaN3 10 mM, others 5 mM, 0.33 mM labeled L-arabinose, none = 100
# [4] = inhibitor NaN3 10 mM, others 5 mM, […] labeled L-arabinose, no inhibitor = 100
# [5] = competing sugar 900 mM, 30 mM labeled L-arabinose, no sugar = 100
Compound,Relative L-arabinose transport S. cerevisiae (PgLAT2 transporter) (PgLAT2 transporter),Competition with L-arabinose uptake by PgLAT2 (PgLAT2 transporter),Relative L-arabinose transport (%) KmLat1 (KmLat1 transporter [1]) [%],Relative L-arabinose transport P. guilliermondii (P. guilliermondii Y-2075; [3]),Inhibition of L-arabinose transport by PgLAT2 (PgLAT2 transporter),Inhibition of L-arabinose transport by KmLat1 (KmLat1 transporter [1]),Relative L-arabinose transport (%) Gal2 (Gal2 permease; [4]) [%],Relative L-arabinose transport S. cerevisiae (PgLAT2 transporter) (PgLAT2 transporter; [3]),Relative L-arabinose transport (%) KmLat1 (KmLat1 transporter [1]; [4]) [%],other results
OC[C@H]1O[C@H](O[C@H]2[C@H](O)[C@@H](O)C(O)O[C@@H]2CO)[C@H](O)[C@@H](O)[C@@H]1O (mixture of isomers) [Maltose],30,to a lesser extent,38,–,–,–,–,–,–,Competition with L-arabinose transport by KmLat1 (KmLat1 transporter [1]): out-competed
N#CC(C#N)=NNc1cccc(Cl)c1 [CCCP],2,–,61,0,significant inhibition,not significantly inhibited,46,–,–,–
C(=NC1CCCCC1)=NC1CCCCC1 [DCCD],36,–,55,–,significant inhibition,Neither is KmLat1 inhibited,69,–,–,Relative L-arabinose transport P. guilliermondii (P. guilliermondii Y-2075): 22
CC/C(=C(/CC)c1ccc(O)cc1)c1ccc(O)cc1 [DESB],–,–,–,8,significant inhibition,Neither is KmLat1 inhibited,81,1,100,–
O=[N+]([O-])c1ccc(O)c([N+](=O)[O-])c1 [DNP],–,–,–,0,significant inhibition,not significantly inhibited,72,4,75,–
O=C[C@H](O)[C@@H](O)[C@@H](O)[C@H](O)CO [Galactose],–,inhibited,–,–,–,–,–,–,–,"Relative L-arabinose transport (%) KmLat1 (KmLat1 transporter [2]; competing sugar 900 mM (maltose 450 mM), 30 mM labeled L-arabinose, no sugar = 100): 23%; Competition with L-arabinose transport by KmLat1 (KmLat1 transporter [2]; competing sugars): out-competed; Vmax for galactose transport by Gal2p (Gal2 permease; BFY597): 76 nmol/mg/min; Relative L-arabinose transport (%) Gal2 (Gal2 permease; [5]): 3%; Competition with L-arabinose transport by Gal2 permease (Gal2 permease): significantly reduced; also recorded: out-competed; Km (Gal2 permease; read-out: Km for galactose transport by Gal2p, BFY597): 25 mM"
[N-]=[N+]=[N-].[Na+] [NaN3],–,–,–,1,significant inhibition,not significantly inhibited,66,16,11,–
O=C[C@H](O)[C@@H](O)[C@H](O)CO [Xylose],0,inhibited,25,–,–,–,–,–,–,Relative L-arabinose transport P. guilliermondii (P. guilliermondii Y-2075): 4; Reduction of uptake of labeled L-arabinose (P. guilliermondii Y-2075; 100× un-labeled competing sugar): 96%; Competition with L-arabinose transport by KmLat1 (KmLat1 transporter [1]): out-competed; Relative L-arabinose transport (%) Gal2 (Gal2 permease; [5]): 25%; Competition with L-arabinose transport by Gal2 permease (Gal2 permease): significantly reduced
